Patent publication US20220251079A1, “BENZO[B][1,8]NAPHTHYRIDINE ACETIC ACID DERIVATIVES AND METHODS OF USE” (STINGTHERA, INC., priority 2019, published 2022)

How the values were obtained:
STING protein = molecular target: T1, STING protein (Homo sapiens, UniProt Q86WV6, H232R); assay: Cell based reporter assay of IRF activation (THP1-dual-KI R232, IRF luciferase); conditions: THP-1; read-out: THP1-dual-KI R232_IRF(Luciferase)_Activity Maximum measured (%)
T1 construct: host or cells: THP-1 dual reporter cells, TMEM173 modified from HAQ to R232 (THP1-dual-KI R232)
In short: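 THP-1 monocytes stably carried an ISG54/5×ISRE firefly luciferase IRF reporter, with TMEM173 knock-in H71R A230G Q293R (R232 variant), and there was no PMA pre-activation. Compounds were tested at 8 points, 2-fold, in duplicate from 150 µM. Cell Titer Glo was applied after supernatant removal.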

[1] = molecular target: T2, human STING protein (140-379) (Homo sapiens, UniProt Q86WV6, H232R); assay: Radiometric filtration binding competition assay (WT_FBA_HIS-SUMO-hSWAT); conditions: read-out: WT-hSWAT IC50
T2 construct: 6XHIS-SUMO-hSTING (140-379); made in house; host or cells: BL-21(DE3) E. coli, pET vector
In short: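 His-SUMO-tagged STING ligand-binding domain (human 140-379 or mouse 139-328, 0.5 μM) preincubated 30 min with compound (8 points, 2-fold from 300 μM), then competed with a tritiated ligand. Complexes were filtered and counted by scintillation. IC50 from non-linear regression, with Ki extrapolated.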

hSTING-R232 = molecular target: T3, hSTING-R232 (Homo sapiens, UniProt Q86WV6, H232R); assay: STING Differential Scanning Fluorimetry (DSF) assay, human; type: binding; conditions: human STING R232-WT, 5 μM protein
T3 construct: recombinant mouse or human STING protein (aa140-379); 6xHis-SUMO elsewhere) (cleaved yes); made in house
In short: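 Purified STING C-terminal domain (aa140-379, R232), human or mouse, at 5 μM in 100 mM NaCl, 30 mM HEPES pH 7.5 with SYBR Orange, was heated at 0.5° C./min. Tm came from dF/dT; ΔTm and FC50 were derived from an 11-point 2-fold series from 300 μM, in duplicate.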

T1 sequence (Q86WV6 whole entry H232R): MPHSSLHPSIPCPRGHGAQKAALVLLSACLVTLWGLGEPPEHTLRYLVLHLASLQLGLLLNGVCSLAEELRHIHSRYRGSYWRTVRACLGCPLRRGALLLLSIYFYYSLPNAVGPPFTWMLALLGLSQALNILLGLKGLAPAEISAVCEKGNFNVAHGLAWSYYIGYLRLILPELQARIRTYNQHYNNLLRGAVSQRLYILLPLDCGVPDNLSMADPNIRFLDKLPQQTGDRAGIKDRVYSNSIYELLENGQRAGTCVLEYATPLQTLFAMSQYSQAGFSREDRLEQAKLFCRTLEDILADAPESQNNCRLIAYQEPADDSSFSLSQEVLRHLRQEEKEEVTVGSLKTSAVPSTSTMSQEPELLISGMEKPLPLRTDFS
T3 sequence (Q86WV6 140-379 H232R): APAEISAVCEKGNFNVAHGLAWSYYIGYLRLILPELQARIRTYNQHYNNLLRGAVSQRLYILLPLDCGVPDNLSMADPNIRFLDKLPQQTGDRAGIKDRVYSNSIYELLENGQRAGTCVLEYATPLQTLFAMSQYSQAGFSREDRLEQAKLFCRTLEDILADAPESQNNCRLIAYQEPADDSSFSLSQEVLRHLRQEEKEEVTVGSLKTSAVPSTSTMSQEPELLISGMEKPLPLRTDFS
T2 sequence (Q86WV6 140-379 H232R): as above

Structure (SMILES)	Emax (STING protein)	IC50 [1]	WT_DSF_hSWAT Tm Shift (° C.) (hSTING-R232)
CSc1c(Cl)ccc2c(=O)c3cc(Cl)c(N(C)C)nc3n(CC(=O)O)c12 [Compound 58, sodium 2-(3,8-dichloro-2-(dimethylamino)-9-(methylthio)-5-oxobenzo[b][1,8]naphthyridin-10(5H)-yl)acetate]	> 50%	< 20 µM	D (“D” > 7° C.)
Cc1ccc2c(=O)c3ccc(N(C)C)nc3n(CC(=O)O)c2c1N(C)C [Compound 61, sodium 2-(2,9-bis(dimethylamino)-8-methyl-5-oxobenzo[b][1,8]naphthyridin-10(5H)-yl)acetate]	> 50%	20 to 100 µM	D (“D” > 7° C.)
CSc1c(C)ccc2c(=O)c3ccc(N(C)C)nc3n(CC(=O)O)c12 [Compound 62, sodium 2-(2-(dimethylamino)-8-methyl-9-(methylthio)-5-oxobenzo[b][1,8]naphthyridin-10(5H)-yl)acetate]	> 50%	20 to 100 µM	D (“D” > 7° C.)
CSc1c(Cl)ccc2c(=O)c3ccc(C=C4COC4)nc3n(CC(=O)O)c12 [Compound 65, 2-(8-chloro-9-(methylthio)-2-(oxetan-3-ylidenemethyl)-5-oxobenzo[b][1,8]naphthyridin-10(5H)-yl)acetic acid]	> 50%	20 to 100 µM	D (“D” > 7° C.)
CO[C@H]1C[C@@H](N(C)c2ccc3c(=O)c4ccc(C)c(N(C)C)c4n(CC(=O)O)c3n2)C1 [Compound 67, 2-(9-(dimethylamino)-2-(((1s,3s)-3-methoxycyclobutyl)(methyl)amino)-8-methyl-5-oxobenzo[b][1,8]naphthyridin-10(5H)-yl)acetic acid]	> 50%	< 20 µM	D (“D” > 7° C.)
CO[C@H]1C[C@@H](N(C)c2ccc3c(=O)c4ccc(C)c(SC)c4n(CC(=O)O)c3n2)C1 [Compound 69, 2-(2-(((1s,3s)-3-methoxycyclobutyl)(methyl)amino)-8-methyl-9-(methylthio)-5-oxobenzo[b][1,8]naphthyridin-10(5H)-yl)acetic acid]	> 50%	< 20 µM	D (“D” > 7° C.)
CSc1c(Cl)ccc2c(=O)c3ccc(N(C)c4ccccc4)nc3n(CC(=O)O)c12 [Compound 73, sodium 2-(8-chloro-2-(methyl(phenyl)amino)-9-(methylthio)-5-oxobenzo[b][1,8]naphthyridin-10(5H)-yl)acetate]	> 50%	< 20 µM	D (“D” > 7° C.)
COCCN(c1ccc2c(=O)c3ccc(Cl)c(SC)c3n(CC(=O)O)c2n1)[C@H]1C[C@@H](OC)C1 [Compound 74, sodium 2-(8-chloro-2-(((1s,3s)-3-methoxycyclobutyl)(2-methoxyethyl)amino)-9-(methylthio)-5-oxobenzo[b][1,8]naphthyridin-10(5H)-yl)acetate]	> 50%	100 to 300 µM	D (“D” > 7° C.)
C=Cc1c(Cl)ccc2c(=O)c3ccc(N(C)C)nc3n(CC(=O)O)c12 [Compound 78, 2-(8-chloro-2-(dimethylamino)-5-oxo-9-vinylbenzo[b][1,8]naphthyridin-10(5H)-yl)acetic acid]	> 50%	20 to 100 µM	D (“D” > 7° C.)
CN(C)c1ccc2c(=O)c3ccc(Cl)c(-c4ccccc4)c3n(CC(=O)O)c2n1 [Compound 79, 2-(8-chloro-2-(dimethylamino)-5-oxo-9-phenylbenzo[b][1,8]naphthyridin-10(5H)-yl)acetic acid]	> 50%	20 to 100 µM	D (“D” > 7° C.)
CN(C)c1c(Cl)ccc2c(=O)c3ccc(N(C)CCn4ccnc4)nc3n(CC(=O)O)c12 [Compound 80, sodium 2-[8-chloro-9-(dimethylamino)-2-{[2-(imidazole-1-yl)ethyl](methyl)amino}-5-oxobenzo[b]1,8-naphthyridin-10-yl]acetate]	> 50%	20 to 100 µM	D (“D” > 7° C.)
CSc1c(Cl)ccc2c(=O)c3ccc(N(C)CCn4ccnc4C)nc3n(CC(=O)O)c12 [Compound 81, sodium 2-(8-chloro-2-{methyl[2-(2-methylimidazol-1-yl)ethyl]amino}-9-(methylsulfanyl)-5-oxobenzo[b]1,8-naphthyridin-10-yl)acetate]	5 to 25%	20 to 100 µM	D (“D” > 7° C.)
Cc1nccn1CCN(C)c1ccc2c(=O)c3ccc(Cl)c(N(C)C)c3n(CC(=O)O)c2n1 [Compound 82, sodium 2-[8-chloro-9-(dimethylamino)-2-{methyl[2-(2-methylimidazol-1-yl)ethyl]amino}-5-oxobenzo[b]1,8-naphthyridin-10-yl]acetate]	5 to 25%	100 to 300 µM	D (“D” > 7° C.)

Results, then the compound that gave them:

Emax (STING protein)	IC50 [1]	WT_DSF_hSWAT Tm Shift (° C.) (hSTING-R232)	Structure (SMILES)
> 50%	20 to 100 µM	D (“D” > 7° C.)	CCN(CCOC)c1nc2c(cc1Cl)c(=O)c1ccc(Cl)c(SC)c1n2CC(=O)O [Compound 59, sodium 2-(3,8-dichloro-2-(ethyl(2-methoxyethyl)amino)-9-(methylthio)-5-oxobenzo[b][1,8]naphthyridin-10(5H)-yl)acetate]
> 50%	20 to 100 µM	D (“D” > 7° C.)	CCOc1c(Cl)ccc2c(=O)c3ccc(NCC4CCOCC4)nc3n(CC(=O)O)c12 [Compound 60, sodium 2-(8-chloro-9-ethoxy-5-oxo-2-(((tetrahydro-2H-pyran-4-yl)methyl)amino)benzo[b][1,8]naphthyridin-10(5H)-yl)acetate]
> 50%	20 to 100 µM	D (“D” > 7° C.)	CSc1c(C)ccc2c(=O)c3ccc(C(C)(C)C)nc3n(CC(=O)O)c12 [Compound 63, sodium 2-(2-(tert-butyl)-8-methyl-9-(methylthio)-5-oxobenzo[b][1,8]naphthyridin-10(5H)-yl)acetate]
> 50%	20 to 100 µM	D (“D” > 7° C.)	Cc1ccc2c(=O)c3ccc(C(C)(C)C#N)nc3n(CC(=O)O)c2c1N(C)C [Compound 64, sodium 2-(2-(2-cyanopropan-2-yl)-9-(dimethylamino)-8-methyl-5-oxobenzo[b][1,8]naphthyridin-10(5H)-yl)acetate]
> 50%	< 20 µM	D (“D” > 7° C.)	CSc1c(Cl)ccc2c(=O)c3ccc(C4(C)CC4)nc3n(CC(=O)O)c12 [Compound 68, sodium 2-(8-chloro-2-(1-methylcyclopropyl)-9-(methylthio)-5-oxobenzo[b][1,8]naphthyridin-10(5H)-yl)acetate]
5 to 25%	20 to 100 µM	D (“D” > 7° C.)	CSc1c(Cl)ccc2c(=O)c3ccc(N(C)CCn4ccnc4)nc3n(CC(=O)O)c12 [Compound 71, Sodium 2-(8-chloro-2-{[2-(imidazole-1-yl)ethyl](methyl)amino}-9-(methylsulfanyl)-5-oxobenzo[b]1,8-naphthyridin-10-yl)acetate]
5 to 25%	100 to 300 µM	D (“D” > 7° C.)	CCOc1c(Cl)ccc2c(=O)c3ccc(N(C)CCn4ccnc4)nc3n(CC(=O)O)c12 [Compound 72, sodium 2-(8-chloro-9-ethoxy-2-{[2-(imidazole-1-yl)ethyl](methyl)amino}-5-oxobenzo[b]1,8-naphthyridin-10-yl)acetate]
> 50%	20 to 100 µM	D (“D” > 7° C.)	COCCN(C)c1nc2c(cc1Cl)c(=O)c1ccc(Cl)c(SC)c1n2CC(=O)O [Compound 75, sodium 2-(3,8-dichloro-2-((2-methoxyethyl)(methyl)amino)-9-(methylthio)-5-oxobenzo[b][1,8]naphthyridin-10(5H)-yl)acetate]
> 50%	< 20 µM	D (“D” > 7° C.)	CO[C@H]1C[C@@H](N(C)c2nc3c(cc2Cl)c(=O)c2ccc(Cl)c(SC)c2n3CC(=O)O)C1 [Compound 77, 2-(3,8-dichloro-2-(((1s,3s)-3-methoxycyclobutyl)(methyl)amino)-9-(methylthio)-5-oxobenzo[b][1,8]naphthyridin-10(5H)-yl)acetic acid]
